According to US7098247B2, “Arylene-carboxylic acid (2-amino-phenyl)-amide derivatives” (Hoffmann-La Roche Inc., priority 2002, dated 2006):

system: histone deacetylase (HDAC); test: cellular acetylation assay (acetylation of histones monitored in PC3 cells, ELISA); assay type: cell-based; conditions: PC3 human prostate carcinoma cells; compound 1 uM; 24 h incubation; antibodies against acetylated histone H3 or H4
Protocol: Therein, acetylation of histones is monitored in PC3 cells. High acetylation means inhibition of histone deacetylase by compounds. Cell viability is monitored in parallel to estimate the cytotoxicity of the compounds.
PC3 cells, human prostate carcinoma cells, are seeded as 1800 cells per well of 384-well microtiterplate in RPMI 1640 (including 5% FCS, 2 mM glutamine and pen/strep). After 48 h at 37° C., pre-diluted compounds are added at a final concentration of 1 uM. Compounds are pre-diluted 1:10 in dimethyl sulfoxide (DMSO) or medium resulting in a final concentration of DMSO of 0.5%.
After 24 h, incubation the cell viability is determined by adding cell proliferation reagent WST1. Another 60 min. later, the optical density (OD) is measured (450 nm versus 690 nm).
After WST1 assay, the cell layer is prepared for the ELISA reaction. Medium is aspirated and cells are fixed in ethanol at −20° C. for 60 min. After washing with PBS/Tween, the blocking solution (PBS/ 5% FCS/Tween) is added and the cell layer is washed again. Antibodies against histone H3 or H4 (Anti-Acetylated Histone (rabbit polyclonal IgG), Upstate Biotechnologie) are added at a dilution of 1:200 for 60 min at 37° C. As a second antibody, goat anti-rabbit IgG(H+L) human IgG adsorbed-HRP conjugate (Dako) is used (1:2000 diluted). Cells are washed 3 times and the peroxidase substrate ABTS is allowed to react for 30–60 min at 37° C. Oxalic acid stops the reaction, and the OD is measured at 405 nm.
The percentage of acetylation is calculated after subtraction of blank O.D.s: […]

Row | Structure (SMILES) | cell acetylation (PC3, 1 μM) [% of control]
1 | C=CCNC(=O)NCc1ccc(C(=O)Nc2ccccc2N)cc1 [Example 6-27, 4-[(3-Allyl-ureido)-methyl]-N-(2-amino-phenyl)-benzamide] | 175 % of control
2 | CC(=O)Nc1ccc(C(=O)Nc2ccccc2N)cc1 [CI 994, reference compound] | 152 % of control
3 | Nc1ccccc1NC(=O)c1ccc(CNC(=O)NCC2CC2)cc1 [Example 6-29, N-(2-Amino-phenyl)-4-(3-cyclopropylmethyl-ureidomethyl)-benzamide] | 187 % of control
4 | CCCCCC(C)NC(=O)NCc1ccc(C(=O)Nc2ccccc2N)cc1 (stereo not drawn) [Example 6-25, N-(2-Amino-phenyl)-4-[3-(1-methyl-hexyl)-ureidomethyl]-benzamide] | 192 % of control
5 | Nc1ccccc1NC(=O)c1ccc(CNC(=O)C2CCCC2)s1 [Example 4-1, 5-[(Cyclopentanecarbonyl-amino)-methyl]-thiophene-2-carboxylic acid (2-amino-phenyl)-amide] | 170 % of control
6 | CCCCCNC(=O)NCc1ccc(C(=O)Nc2ccccc2N)cn1 [Example 6-38, N-(2-Amino-phenyl)-6-[(3-pentyl-ureido)-methyl]-nicotinamide] | 178 % of control
7 | CCCC(=O)NCc1ccc(C(=O)Nc2ccccc2N)s1 [Example 4-6, 5-(Butyrylamino-methyl)-thiophene-2-carboxylic acid (2-amino-phenyl)-amide] | 238 % of control
8 | CCOCCCNC(=O)NCc1ccc(C(=O)Nc2ccccc2N)cc1 [Example 6-26, N-(2-Amino-phenyl)-4-[3-(3-ethoxy-propyl)-ureidomethyl]-benzamide] | 179 % of control
9 | CN(C)CC(C)(C)CNC(=O)NCc1ccc(C(=O)Nc2ccccc2N)cc1 [Example 6-19, N-(2-Amino-phenyl)-4-[3-(3-dimethylamino-2,2-dimethyl-propyl)-ureidomethyl]-benzamide] | 205 % of control
10 | CCOCC(=O)NCc1ccc(C(=O)Nc2ccccc2N)s1 [Example 4-3, 5-[(2-Ethoxy-acetylamino)-methyl]-thiophene-2-carboxylic acid (2-amino-phenyl)-amide] | 194 % of control
11 | CC(C)CNC(=O)NCc1ccc(C(=O)Nc2ccccc2N)s1 [Example 6-13, 5-(3-Isobutyl-ureidomethyl)-thiophene-2-carboxylic acid (2-amino-phenyl)-amide] | 178 % of control
12 | Nc1ccccc1NC(=O)c1ccc(CNC(=O)CC2C=CCC2)cc1 (stereo not drawn) [Example 4-31, N-(2-Amino-phenyl)-4-[(2-cyclopent-2-enyl-acetylamino)-methyl]-benzamide] | 176 % of control
13 | CCC(C)CNC(=O)NCc1ccc(C(=O)Nc2ccccc2N)s1 (stereo not drawn) [Example 6-8, 5-[3-(2-Methyl-butyl)-ureidomethyl]-thiophene-2-carboxylic acid (2-amino-phenyl)-amide] | 198 % of control
14 | CC(C)OCCCNC(=O)NCc1ccc(C(=O)Nc2ccccc2N)cc1 [Example 6-28, N-(2-Amino-phenyl)-4-[3-(3-isopropoxy-propyl)-ureidomethyl]-benzamide] | 177 % of control
15 | C=CCNC(=O)NCc1ccc(C(=O)Nc2ccccc2N)s1 [Example 6-12, 5-[(3-Allyl-ureido)-methyl]-thiophene-2-carboxylic acid (2-amino-phenyl)-amide] | 170 % of control
